The values below come from ChEMBL document CHEMBL1157035, “Synthesis and biological evaluation of water-soluble organogermanium” (Eur J Med Chem, 2010).

Common to all, as to assay type: functional, organism-based
The subject of experiment [1] is Mus musculus. Put plainly: Immunoregulatory activity in ICR mouse assessed as increase in serum IFN-gamma level at 100 mg/kg, po after 12 hrs by ELISA. On the set-up: dose 100 mg/kg.
The test system of experiment [2] is Mus musculus. The experiment in a line: Immunoregulatory activity in ICR mouse assessed as increase in serum IFN-gamma level at 100 mg/kg, po after 12 to 24 hrs by ELISA. On the set-up: dose 100 mg/kg.
In experiment [3] the test system is Mus musculus. Put plainly: Immunoregulatory activity in ICR mouse assessed as increase in serum IFN-gamma level at 300 mg/kg, po after 24 hrs by ELISA. On the set-up: dose 300 mg/kg.
For experiment [4], the system named is Mus musculus. The experiment in a line: Immunoregulatory activity in po dosed ICR mouse assessed as increase in serum IFN-gamma level after 24 hrs by ELISA.
For experiment [5], the system named is Mus musculus. The experiment in a line: Immunoregulatory activity in ICR mouse assessed as increase in serum IFN-gamma level at 100 mg/kg, po after 24 hrs by ELISA. On the set-up: dose 100 mg/kg.

Active and inactive are the calls of the source. The calls are words filed in the database; no cut-off is given here.

Turning to “6-O-[3-(trimethylgermyI)propyl]-beta-D-glucopyranoside”, in experiment [1], the result was inactive. In addition, the outcome in experiment [2] was Active. Besides, the Activity in experiment [3] is 600 pg/mL; in experiment [4] it was “Dose-dependent effect”.

On to GERMANIUM SESQUIOXIDE, for which, in experiment [1], the outcome was inactive. In addition, the result in experiment [2] was Active. Moreover, the Activity in experiment [5] was 320 pg/mL.
